SMILES strings stand for the structures.

In data set [1] the target is T1, glucocorticoid receptor (GR), recombinant full-length receptor protein (Homo sapiens, UniProt P04150).
T1 construct: 4 nM recombinant, full-length receptor protein was incubated with increasing concentrations of GR ligand; purchased Life Technologies A-15897
T1 sequence (P04150 1-777): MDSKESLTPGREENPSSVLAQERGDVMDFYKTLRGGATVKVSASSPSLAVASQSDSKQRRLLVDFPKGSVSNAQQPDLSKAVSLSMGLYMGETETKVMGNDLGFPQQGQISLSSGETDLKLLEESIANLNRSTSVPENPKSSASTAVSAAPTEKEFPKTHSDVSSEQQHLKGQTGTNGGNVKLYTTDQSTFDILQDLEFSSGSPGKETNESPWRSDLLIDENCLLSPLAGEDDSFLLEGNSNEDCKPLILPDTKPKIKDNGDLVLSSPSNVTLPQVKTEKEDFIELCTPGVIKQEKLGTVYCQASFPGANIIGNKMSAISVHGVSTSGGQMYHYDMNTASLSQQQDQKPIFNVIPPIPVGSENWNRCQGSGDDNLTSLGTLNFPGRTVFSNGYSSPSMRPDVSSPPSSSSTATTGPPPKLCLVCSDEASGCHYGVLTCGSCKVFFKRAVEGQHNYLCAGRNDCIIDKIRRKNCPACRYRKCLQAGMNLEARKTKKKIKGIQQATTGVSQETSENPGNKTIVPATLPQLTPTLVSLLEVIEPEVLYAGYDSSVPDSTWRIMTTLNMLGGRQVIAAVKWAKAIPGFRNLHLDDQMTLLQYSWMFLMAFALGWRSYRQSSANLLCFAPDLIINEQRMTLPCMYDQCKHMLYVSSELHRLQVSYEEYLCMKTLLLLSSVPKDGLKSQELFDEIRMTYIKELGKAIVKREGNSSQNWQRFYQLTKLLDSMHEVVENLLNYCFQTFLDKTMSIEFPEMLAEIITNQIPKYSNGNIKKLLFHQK
The data set is described as follows: Glucocorticoid receptor binding assay (fluorescence polarization kit). The settings on record: 4 nM receptor, 2.5 nM Fluormone GS1 tracer, 2h room temperature, read-out: GR binding ABS IC50. How it is done: Test compounds were diluted in DMSO over seven orders of magnitude, further diluted in assay buffer and distributed into 384-well plates. The sensitivity limit of this assay was 2-4 nM.
Data were processed by sigmoidal curve fitting.
Absolute (Abs) IC50 and Emax were determined from the curve fits.
In general terms: Polarisation of emitted light reports the rotation of a fluorescent probe.

In data set [2] the test system is TNF alpha release from human PBMCs. As to the kind of experiment: Inhibition of TNF alpha release from human PBMCs. The data set is classed as cell-based. As to conditions: LPS 1 μg/ml, 18 hours, AlphaLISA. The gist of the method:
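Fresh or thawed PBMCs in serum-free medium with 0.5% HSA, stimulated with 1 μg/ml LPS plus titrated compound for 18 h at 37° C. TNF-a in supernatant by AlphaLISA; window set with a reference PDE4 inhibitor at 100×IC50. EC50 and Emax from sigmoidal fits.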

A short description of data set [3]: Human liver microsomes (HLM) assay. It counts as in vitro ADME. The settings on record: hepatic extraction ratio; 0.5 μM compound, 0.5 mg/mL microsomes, NADPH, 37° C. The gist of the method: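 Compound at 0.5 μM incubated at 37° C. with human liver microsomes (0.5 mg/mL) and NADPH (1 mM) in phosphate buffer pH 7.4, 1% organic solvent; sampled 0-30 minutes. Clapp (mL/min/kg) and Eh (%) derived from depletion rate constant.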

Regarding `C[C@H](NC(=O)c1cn(C)cn1)[C@H](Oc1ccc(C(=O)O[C@H]2CCCN(C(=O)[C@H]3COC(=O)C3)C2)cc1)c1ccc(C2CC2)cc1` [Compound 43, [(3S)-1-[(3R)-5-oxotetrahydrofuran-3-carbonyl]-3-piperidyl] 4-[(1R,2S)-1-(4-cyclopropylphenyl)-2-[(1-methylimidazole-4-carbonyl)amino]propoxy]benzoate], the IC50 in data set [1] is under 100 nM. In data set [2] (PBMC), this compound gave an EC50 of under 100 nM. Moreover, the “HLM assay Eh (%)” value in data set [3] is reported as “* (extraction ratio (Eh)>90%)”.

Take `C[C@H](NC(=O)c1ccsn1)[C@H](Oc1ccc(C(=O)O[C@H]2CCCN(C(=O)[C@H]3COC(=O)C3)C2)cc1)c1ccc(C2CC2)cc1` [Compound 44, [(3S)-1-[(3R)-5-oxotetrahydrofuran-3-carbonyl]-3-piperidyl] 4-[(1R,2S)-1-(4-cyclopropylphenyl)-2-(isothiazole-3-carbonylamino)propoxy]benzoate]: the IC50 in data set [1] is under 100 nM. Moreover, in data set [2] (PBMC), the EC50 was under 100 nM. Moreover, the “HLM assay Eh (%)” value in data set [3] is “* (extraction ratio (Eh)>90%)”.

Consider `Cc1nocc1C(=O)N[C@@H](C)[C@H](Oc1ccc(C(=O)O[C@H]2CCCN(C(=O)[C@H]3COC(=O)C3)C2)cc1)c1ccc(C2CC2)cc1` [Compound 45, [(3S)-1-[(3R)-5-oxotetrahydrofuran-3-carbonyl]-3-piperidyl] 4-[(1R,2S)-1-(4-cyclopropylphenyl)-2-[(3-methylisoxazole-4-carbonyl)amino]propoxy]benzoate], for which, in data set [1], the IC50 is under 100 nM. In data set [2] (PBMC), this compound yielded an EC50 of under 100 nM. Moreover, the “HLM assay Eh (%)” value in data set [3] is reported as “* (extraction ratio (Eh)>90%)”.

Consider `C[C@H](NC(=O)c1nccs1)[C@H](Oc1ccc(C(=O)O[C@H]2CCCN(C(=O)[C@H]3COC(=O)C3)C2)cc1)c1ccc(C2CC2)cc1` [Compound 46, [(3S)-1-[(3R)-5-oxotetrahydrofuran-3-carbonyl]-3-piperidyl] 4-[(1R,2S)-1-(4-cyclopropylphenyl)-2-(thiazole-2-carbonylamino)propoxy]benzoate], for which the IC50 in data set [1] is under 100 nM. The same compound returned an EC50 in data set [2] (PBMC) of under 100 nM. Moreover, in data set [3], the “HLM assay Eh (%)” value is “** (50%<extraction ratio (Eh)<90%)”.

Consider `C[C@H](NC(=O)c1ccns1)[C@H](Oc1ccc(C(=O)O[C@H]2CCCN(C(=O)[C@H]3COC(=O)C3)C2)cc1)c1ccc(C2CC2)cc1` [Compound 47, [(3S)-1-[(3R)-5-oxotetrahydrofuran-3-carbonyl]-3-piperidyl] 4-[(1R,2S)-1-(4-cyclopropylphenyl)-2-(isothiazole-5-carbonylamino)propoxy]benzoate], for which, in data set [1], the IC50 was under 100 nM. In data set [2] (PBMC), the EC50 was under 100 nM. Further, in data set [3], the “HLM assay Eh (%)” value was “* (extraction ratio (Eh)>90%)”.

On to `Cc1sncc1C(=O)N[C@@H](C)[C@H](Oc1ccc(C(=O)O[C@H]2CCCN(C(=O)[C@H]3COC(=O)C3)C2)cc1)c1ccc(C2CC2)cc1` [Compound 48, [(3S)-1-[(3R)-5-oxotetrahydrofuran-3-carbonyl]-3-piperidyl] 4-[(1R,2S)-1-(4-cyclopropylphenyl)-2-[(5-methylisothiazole-4-carbonyl)amino]propoxy]benzoate], for which the IC50 in data set [1] is under 100 nM. The EC50 in data set [2] (PBMC) is under 100 nM. Further, the “HLM assay Eh (%)” value in data set [3] is reported as “* (extraction ratio (Eh)>90%)”.

With `C[C@H](NC(=O)c1ncco1)[C@H](Oc1ccc(C(=O)O[C@H]2CCCN(C(=O)[C@H]3COC(=O)C3)C2)cc1)c1ccc(C2CC2)cc1` [Compound 49, [(3S)-1-[(3R)-5-oxotetrahydrofuran-3-carbonyl]-3-piperidyl] 4-[(1R,2S)-1-(4-cyclopropylphenyl)-2-(oxazole-2-carbonylamino)propoxy]benzoate], in data set [1], the IC50 was under 100 nM. In data set [2] (PBMC), the EC50 is under 100 nM. The “HLM assay Eh (%)” value in data set [3] is “* (extraction ratio (Eh)>90%)”.

On to `C[C@H](NC(=O)c1cnco1)[C@H](Oc1ccc(C(=O)O[C@H]2CCCN(C(=O)[C@H]3COC(=O)C3)C2)cc1)c1ccc(C2CC2)cc1` [Compound 50, [(3S)-1-[(3R)-5-oxotetrahydrofuran-3-carbonyl]-3-piperidyl] 4-[(1R,2S)-1-(4-cyclopropylphenyl)-2-(oxazole-5-carbonylamino)propoxy]benzoate], for which the IC50 in data set [1] is under 100 nM. Also, the EC50 in data set [2] (PBMC) is under 100 nM. In addition, in data set [3], the “HLM assay Eh (%)” value is listed as “* (extraction ratio (Eh)>90%)”.

For `C[C@H](NC(=O)c1ccon1)[C@H](Oc1ccc(C(=O)O[C@H]2CCCN(C(=O)[C@H]3COC(=O)C3)C2)cc1)c1ccc(C2CC2)cc1` [Compound 51, [(3S)-1-[(3R)-5-oxotetrahydrofuran-3-carbonyl]-3-piperidyl] 4-[(1R,2S)-1-(4-cyclopropylphenyl)-2-(isoxazole-3-carbonylamino)propoxy]benzoate], the IC50 in data set [1] was under 100 nM. For the same compound, the EC50 in data set [2] (PBMC) was under 100 nM. The “HLM assay Eh (%)” value in data set [3] is reported as “* (extraction ratio (Eh)>90%)”.

As for `C[C@H](NC(=O)c1csnn1)[C@H](Oc1ccc(C(=O)O[C@H]2CCCN(C(=O)[C@H]3COC(=O)C3)C2)cc1)c1ccc(C2CC2)cc1` [Compound 52, [(3S)-1-[(3R)-5-oxotetrahydrofuran-3-carbonyl]-3-piperidyl] 4-[(1R,2S)-1-(4-cyclopropylphenyl)-2-(thiadiazole-4-carbonylamino)propoxy]benzoate], in data set [1], the IC50 is under 100 nM. Moreover, in data set [2], the EC50 was under 100 nM. Also, the “HLM assay Eh (%)” value in data set [3] is listed as “* (extraction ratio (Eh)>90%)”.

`Cc1cc(C(=O)N[C@@H](C)[C@H](Oc2ccc(C(=O)O[C@H]3CCCN(C(=O)[C@H]4COC(=O)C4)C3)cc2)c2ccc(C3CC3)cc2)no1` [Compound 53, [(3S)-1-[(3R)-5-oxotetrahydrofuran-3-carbonyl]-3-piperidyl] 4-[(1R,2S)-1-(4-cyclopropylphenyl)-2-[(5-methylisoxazole-3-carbonyl)amino]propoxy]benzoate]: the IC50 in data set [1] is under 100 nM. Besides, in data set [2] (PBMC), the EC50 was under 100 nM. Moreover, the “HLM assay Eh (%)” value in data set [3] is reported as “* (extraction ratio (Eh)>90%)”.

On to `C[C@H](NC(=O)c1ccno1)[C@H](Oc1ccc(C(=O)O[C@H]2CCCN(C(=O)[C@H]3COC(=O)C3)C2)cc1)c1ccc(C2CC2)cc1` [Compound 54, [(3S)-1-[(3R)-5-oxotetrahydrofuran-3-carbonyl]-3-piperidyl] 4-[(1R,2S)-1-(4-cyclopropylphenyl)-2-(isoxazole-5-carbonylamino)propoxy]benzoate], for which the IC50 in data set [1] was under 100 nM. This compound yielded a concentration giving a half-maximal response (EC50) in data set [2] (PBMC) of under 100 nM. In addition, in data set [3], the “HLM assay Eh (%)” value was “* (extraction ratio (Eh)>90%)”.

`C[C@H](NC(=O)c1cscn1)[C@H](Oc1ccc(C(=O)O[C@H]2CCCN(C(=O)[C@H]3COC(=O)C3)C2)cc1)c1ccc(C2CC2)cc1` [Compound 55, [(3S)-1-[(3R)-5-oxotetrahydrofuran-3-carbonyl]-3-piperidyl] 4-[(1R,2S)-1-(4-cyclopropylphenyl)-2-(thiazole-4-carbonylamino)propoxy]benzoate]: the IC50 in data set [1] was under 100 nM. Besides, the concentration for a half-maximal effect (EC50) in data set [2] (PBMC) is under 100 nM. Further, the “HLM assay Eh (%)” value in data set [3] is given as “* (extraction ratio (Eh)>90%)”.

As for `Cc1noc(C(=O)N[C@@H](C)[C@H](Oc2ccc(C(=O)O[C@H]3CCCN(C(=O)[C@H]4COC(=O)C4)C3)cc2)c2ccc(C3CC3)cc2)n1` [Compound 56, [(3S)-1-[(3R)-5-oxotetrahydrofuran-3-carbonyl]-3-piperidyl] 4-[(1R,2S)-1-(4-cyclopropylphenyl)-2-[(3-methyl-1,2,4-oxadiazole-5-carbonyl)amino]propoxy]benzoate], the IC50 in data set [1] is under 100 nM. This compound also gave an EC50 in data set [2] (PBMC) of under 100 nM. For the same compound, in data set [3], the “HLM assay Eh (%)” value was “* (extraction ratio (Eh)>90%)”.

In the case of `C[C@H](NC(=O)c1ccn(C)n1)[C@H](Oc1ccc(C(=O)O[C@H]2CCCN(C(=O)[C@H]3COC(=O)C3)C2)cc1)c1ccc(C2CC2)cc1` [Compound 57, [(3S)-1-[(3R)-5-oxotetrahydrofuran-3-carbonyl]-3-piperidyl] 4-[(1R,2S)-1-(4-cyclopropylphenyl)-2-[(1-methylpyrazole-3-carbonyl)amino]propoxy]benzoate], the IC50 in data set [1] was under 100 nM. This compound had an EC50 in data set [2] (PBMC) of under 100 nM. The “HLM assay Eh (%)” value in data set [3] is “* (extraction ratio (Eh)>90%)”.

For orientation: IC50 means the point on the concentration scale where inhibition reaches its midpoint. Broadly, the EC50 is the concentration at which the effect is half-maximal. A high value points to weaker potency.

(Values after US10494363B2, “Non-steroidal glucocorticoid receptor modulators for local drug delivery” (LEO PHARMA A/S, priority 2015, dated 2019).)
